How the values were obtained:
ER glucosidases I and II = experiment: Free oligosaccharide (FOS) analysis as marker of glucosidase inhibition; type: cell-based, Chinese hamster
Excerpt: Free oligosaccharides (FOS) produced in the presence of free or DCPP liposomes encapsulating NB-DNJ are characterized and used as a cellular marker for glucosidase inhibition to measure the enhancement of drug activity due to intracellular delivery. […] In this experiment, the distribution of glucosylated FOS is used as a measure of glucosidase inhibition by NB-DNJ, where Glc1Mann-FOS and Glc2Mann-FOS species are a result of glucosidase II inhibition, and Glc3Mann-FOS a result of glucosidase I inhibition.
CHO cells were incubated in the presence of free NB-DNJ at the antiviral concentration of 0.5 mM, or with 100 μM of DCPP liposomes encapsulating NB-DNJ at final concentrations ranging 0-75 nM. Cells were left to incubate for 5 days and isolation of FOS was performed using cell homogenates standardized to 500 μg of total protein as described by Mellor et al (2004). Biochem J. 2004 Aug. 1; 381 (Pt 3): 861-866. Detection of FOS was performed by normal-phase HPLC following labeling of oligosaccharides by 2-aminobenzamide. The compositions of FOS were further characterized and determined by digestions with glycosidases including endoglycosidase H, jack bean α-mannosidase, and α-glucosidases I and II. The percentage of non-glucosylated and glucosylated oligomannose FOS (represented by Mann-FOS, Glc1Mann-FOS, Glc2Mann-FOS, and Glc3Mann-FOS) was calculated for each sample, and results are represented in Table 2. Results represent the mean±S.D. of four separate experiments.

[1] = pH sensitivity of DCPP liposomes (calcein leakage); type: physicochemical; conditions: 1 mM encapsulated, pH 5.0-7.4, vs calcein only liposomes
Description: DCPP liposomes encapsulating 1-mM DNJ, NB-DNJ, or NN-DNJ in 80-mM calcein buffer were compared with empty (calcein only) liposomes to determine the effects of the alkyl chain of NB-DNJ and NN-DNJ on the pH-sensitivity. 10 μl of calcein-loaded DCPP liposomes (final phospholipid concentration, 5 μM) was added to 2 ml of MES-buffered saline at various pH values ranging from 5.0-7.4, and left to incubate with shaking 15 min at 37° C. Following incubation, calcein fluorescence was measured before and after the addition of Triton to a final concentration of 0.1%. Fluorescence intensities obtained at acidic pH values were corrected for the slight effect of pH on calcein fluorescence. The percentage of calcein release at each pH was calculated using the formula: % leakage=((in−I0)/(I100−I0))×100, where I0 is the fluorescence at neutral pH, In is the corrected intensity at acidic pH before the addition of Triton, and I100 is the total dequenched calcein at neutral pH.

ncp BVDV [2] = experiment: Infectivity of secreted ncp BVDV on naive MDBK cells, immunofluorescence; type: cell-based, bovine viral diarrhea virus
Description: Using BVDV viral particles collected from the previous experiment (500 μl of supernatant containing secreted BVDV), the infectivity of secreted NB-DNJ-treated BVDV was determined by incubation with naïve MDBK cells for 3 days followed by immunofluorescent staining to identify BVDV proteins in infected cells. Cells were stained post-infection using an anti-BVDV NS2-NS3 monoclonal antibody, followed by a FITC-labelled secondary antibody. Experiments were performed in duplicate using 6-well plates. The percent viral infectivity was calculated by the number of infected cells, identified by the presence of non-structural BVDV proteins, divided by the total cell count determined by DAPI staining of cell nuclei. Results were also normalized to account for decreased or increased viral titres in each sample (results from BVDV secretion experiments).

ncp BVDV [3] = experiment: BVDV secretion from infected MDBK cells, real-time PCR; type: cell-based, bovine viral diarrhea virus; conditions: 750 nM, 3 days
Description: In a first study using the ncp strain of BVDV, NB-DNJ was added freely to the culture medium, so that final concentrations ranged between 0 and 750 nM. In separate incubations, NB-DNJ DCPP liposomes were added so that the final lipid concentration was 50 μM and final concentrations of NB-DNJ ranged between 0 and 750 nM. Experiments were carried out in duplicate in 6-well plates. The quantity of secreted BVDV viral particles was measured following 3 days of incubation. Virus secretion analysis was performed by quantitative PCR (real-time PCR) on viral RNA extracted from 500 μl of supernatant. Real-time PCR used primers directed against the ncp BVDV RNA where the forward primer sequence was […] (SEQ ID NO:1), and the reverse primer sequence was […] (SEQ ID NO:2). Results are expressed as the percentage of RNA copies present in treated samples as compared to the untreated control (=100% on the x axis).

CCCCN1C[C@H](O)[C@@H](O)[C@H](O)[C@H]1CO [NB-DNJ, N-butyl-1,5-dideoxy-1,5-imino-D-glucitol]
Distribution of total FOS Glc0Mann (ER glucosidases I and II; 0.75 pM in liposomes): 70.7 ± 5.4%
Distribution of total FOS Glc1Mann (ER glucosidases I and II; 0.75 pM in liposomes): 18.7 ± 3.7%
Distribution of total FOS Glc2Mann (ER glucosidases I and II; 0.75 pM in liposomes): 7.7 ± 1.1%
Distribution of total FOS Glc3Mann (ER glucosidases I and II; 0.75 pM in liposomes): 2.9 ± 0.9%
Distribution of total FOS Glc0Mann (ER glucosidases I and II; 7.5 pM in liposomes): 70.4 ± 4.2%
Distribution of total FOS Glc1Mann (ER glucosidases I and II; 7.5 pM in liposomes): 17.7 ± 1.3%
Distribution of total FOS Glc2Mann (ER glucosidases I and II; 7.5 pM in liposomes): 8.3 ± 2.1%
Distribution of total FOS Glc3Mann (ER glucosidases I and II; 7.5 pM in liposomes): 3.6 ± 1.3%
Distribution of total FOS Glc0Mann (ER glucosidases I and II; 75 pM in liposomes): 51.7 ± 4.7%
Distribution of total FOS Glc1Mann (ER glucosidases I and II; 75 pM in liposomes): 38.6 ± 4.1%
Distribution of total FOS Glc2Mann (ER glucosidases I and II; 75 pM in liposomes): 5.3 ± 1.8%
Distribution of total FOS Glc3Mann (ER glucosidases I and II; 75 pM in liposomes): 4.4 ± 2.8%
Distribution of total FOS Glc0Mann (ER glucosidases I and II; 0.75 nM in liposomes): 20.4 ± 2.7%
Distribution of total FOS Glc1Mann (ER glucosidases I and II; 0.75 nM in liposomes): 66.9 ± 5.1%
Distribution of total FOS Glc2Mann (ER glucosidases I and II; 0.75 nM in liposomes): 7.4 ± 3.3%
Distribution of total FOS Glc3Mann (ER glucosidases I and II; 0.75 nM in liposomes): 5.3 ± 2.9%
Distribution of total FOS Glc0Mann (ER glucosidases I and II; 7.5 nM in liposomes): 12.7 ± 2.6%
Distribution of total FOS Glc1Mann (ER glucosidases I and II; 7.5 nM in liposomes): 50.0 ± 4.8%
Distribution of total FOS Glc2Mann (ER glucosidases I and II; 7.5 nM in liposomes): 28.6 ± 2.7%
Distribution of total FOS Glc3Mann (ER glucosidases I and II; 7.5 nM in liposomes): 8.7 ± 1.7%
Distribution of total FOS Glc0Mann (ER glucosidases I and II; 75 nM in liposomes): 13.2 ± 4.1%
Distribution of total FOS Glc1Mann (ER glucosidases I and II; 75 nM in liposomes): 7.9 ± 2.8%
Distribution of total FOS Glc2Mann (ER glucosidases I and II; 75 nM in liposomes): 26.6 ± 4.5%
Distribution of total FOS Glc3Mann (ER glucosidases I and II; 75 nM in liposomes): 52.3 ± 6.2%
Distribution of total FOS Glc0Mann (ER glucosidases I and II; 0.5 mM free): 11.9 ± 1.9%
Distribution of total FOS Glc1Mann (ER glucosidases I and II; 0.5 mM free): 9.5 ± 0.9%
Distribution of total FOS Glc2Mann (ER glucosidases I and II; 0.5 mM free): 31.7 ± 4.5%
Distribution of total FOS Glc3Mann (ER glucosidases I and II; 0.5 mM free): 46.9 ± 4.8%
pH sensitivity / stability of DCPP liposomes [1]: significant decrease in pH sensitivity
effect on BVDV infectivity (ncp BVDV [2]; 750 nM added freely to the medium): little to no effect
naive MDBK cells infected by viral progeny (ncp BVDV [2]; 750 nM delivered via DCPP liposomes): less than 1%
antiviral effect vs controls (ncp BVDV [2]; 750 nM in DCPP liposomes): over 20 fold
naive MDBK cells infected by viral progeny (ncp BVDV [2]; free, up to 750 nM): approximately 20%
decrease in number of secreted viral particles (ncp BVDV [3]; DCPP liposome-mediated delivery): 2 fold
effect on number of secreted viral particles (ncp BVDV [3]; free delivery): no effect

Source: patent publication US20110182982A1, “LIPOSOME TREATMENT OF VIRAL INFECTIONS” (University of Oxford, priority 2006, published 2011)
